Reference: ChEMBL document CHEMBL4421722, “Inhibitors of protein prenyltransferases” (2013)
Activity calls are given as the source filed them. The rule behind the calls is not given here.

How the values were obtained:
[1] = Toxicity in SCID mouse xenografted with human PANC1 cells assessed as effect on ALP level at 1.16 mg/kg, ip dosed 3 times per week and measured every 2 weeks up to day 14 to day 47; assay type: organism-based; conditions: in vivo, 336 h
[2] = test system: PANC-1; experiment: Antitumor activity against human PANC1 cells xenografted in SCID mouse assessed as inhibition of tumor growth at 1.16 mg/kg, ip dosed 3 times per week and measured every 2 weeks up to day 14 to day 47; assay type: functional, organism-based
[3] = test system: Jurkat; experiment: Antiproliferative activity against human Jurkat cells assessed as inhibition of cell proliferation incubated for 72 hrs by CCK8 assay; assay type: functional, cell-based
[4] = organism: Mus musculus; experiment: Inhibition of geranylgeranyltransferase type I in mouse NIH/3T3 cells transfected with p21WAF1/CIP1 promoter-Luc assessed as induction of p21 CIP1/WAF1 expression by luciferase reporter gene assay; assay type: cell-based
[5] = test system: PANC-1; experiment: Antitumor activity against human PANC1 cells xenografted in SCID mouse assessed as inhibition of tumor growth at 1.16 mg/kg, ip dosed six times per week and measured every 2 weeks; assay type: functional, organism-based
[6] = Toxicity in SCID mouse xenografted with human PANC1 cells assessed as effect on AST […] level at 1.16 mg/kg, ip dosed 3 times per week and measured every 2 weeks up to day 14 to day 47; assay type: organism-based; conditions: in vivo, 336 h
[7] = Toxicity in SCID mouse xenografted with human PANC1 cells assessed as effect on GLU level at 1.16 mg/kg, ip dosed 3 times per week and measured every 2 weeks up to day 14 to day 47; assay type: organism-based; conditions: in vivo, 336 h
[8] = Toxicity in SCID mouse xenografted with human PANC1 cells assessed as effect on RBC level at 1.16 mg/kg, ip dosed 3 times per week and measured every 2 weeks up to day 14 to day 47; assay type: organism-based; conditions: in vivo, 336 h
[9] = test system: HEK293; experiment: Inhibition of geranylgeranyltransferase type I in HEK293 cells expressing Myc-HA-tagged Rheb-WT assessed as effect on unprenylated Rap1 accumulation at 2.5 uM incubated for 48 hrs by SDS-PAGE and immunoblot analysis; assay type: cell-based; conditions: Homo sapiens
[10] = Clearance in SCID mouse xenografted with human PANC1 cells at 1.16 mg/kg, ip dosed once or 6 times per week; assay type: ADME, organism-based; conditions: in vivo
[11] = target: Protein farnesyltransferase (Rattus norvegicus) (UniProt Q04631+Q02293); experiment: Inhibition of rat recombinant FTase alpha/beta expressed in Escherichia coli at 100000 nM using K-Ras4B as a substrate as and [3H]farnesyl pyrophosphate incubated for 30 mins by scintillation counting assay
[12] = Toxicity in SCID mouse xenografted with human PANC1 cells assessed as effect on LY level at 1.16 mg/kg, ip dosed 3 times per week and measured every 2 weeks up to day 14 to day 47; assay type: organism-based; conditions: in vivo, 336 h
[13] = Toxicity in SCID mouse xenografted with human PANC1 cells assessed as effect on ALB level at 1.16 mg/kg, ip dosed 3 times per week and measured every 2 weeks up to day 14 to day 47; assay type: organism-based; conditions: in vivo, 336 h
[14] = Toxicity in SCID mouse xenografted with human PANC1 cells assessed as effect on BUN level at 1.16 mg/kg, ip dosed 3 times per week and measured every 2 weeks up to day 14 to day 47; assay type: organism-based; conditions: in vivo, 336 h
[15] = target: T1, Geranylgeranyl transferase type-2 (Homo sapiens) (UniProt P53611+Q92696); experiment: Inhibition of RabGGTase in HEK293 cells assessed as reduction in geranylgeranylation of Rab5b protein at 5 to 10 uM incubated for 48 hrs by SDS-PAGE and immunoblot analysis; assay type: cell-based
[16] = Toxicity in SCID mouse xenografted with human PANC1 cells assessed as effect on CA level at 1.16 mg/kg, ip dosed 3 times per week and measured every 2 weeks up to day 14 to day 47; assay type: organism-based; conditions: in vivo, 336 h
[17] = test system: K562; experiment: Induction of cell cycle arrest in human K562 cells assessed as accumulation at G1 phase incubated for 48 hrs by flow cytometry; assay type: functional, cell-based
[18] = Toxicity in SCID mouse xenografted with human PANC1 cells assessed as effect on NE level at 1.16 mg/kg, ip dosed 3 times per week and measured every 2 weeks up to day 14 to day 47; assay type: organism-based; conditions: in vivo, 336 h
[19] = test system: MCF7; experiment: Antiproliferative activity against human MCF7 cells assessed as inhibition of cell proliferation incubated for 6 days by CCK8 assay; assay type: functional, cell-based
[20] = Toxicity in SCID mouse xenografted with human PANC1 cells assessed as effect on ALT […] level at 1.16 mg/kg, ip dosed 3 times per week and measured every 2 weeks up to day 14 to day 47; assay type: organism-based; conditions: in vivo, 336 h
[21] = target: Protein farnesyltransferase (Homo sapiens) (UniProt P49354+P49356); experiment: Inhibition of FTase in HEK293 cells assessed as reduction in H-ras farnesylation at 2.5 to 10 uM incubated for 48 hrs by SDS-PAGE and immunoblot analysis; assay type: cell-based
[22] = Inhibition of rat recombinant geranylgeranyltransferase type I expressed in Escherichia coli assessed as reduction in geranylgeranylation of RhoA incubated for 30 mins in presence of [3H]GGPP by scintillation counting assay relative to control
[23] = Toxicity in SCID mouse xenografted with human PANC1 cells assessed as effect on WBC level at 1.16 mg/kg, ip dosed 3 times per week and measured every 2 weeks up to day 14 to day 47; assay type: organism-based; conditions: in vivo, 336 h
[24] = test system: K562; experiment: Induction of cell cycle arrest in human K562 cells assessed as reduction in accumulation at S phase incubated for 48 hrs by flow cytometry; assay type: functional, cell-based
[25] = Toxicity in SCID mouse xenografted with human PANC1 cells assessed as effect on creatinine level at 1.16 mg/kg, ip dosed 3 times per week and measured every 2 weeks up to day 14 to day 47; assay type: organism-based; conditions: in vivo, 336 h
[26] = Toxicity in SCID mouse xenografted with human PANC1 cells assessed as effect on CK level at 1.16 mg/kg, ip dosed 3 times per week and measured every 2 weeks up to day 14 to day 47; assay type: organism-based; conditions: in vivo, 336 h
[27] = target: T1, Geranylgeranyl transferase type-2 (Homo sapiens); experiment: Inhibition of RabGGTase (unknown origin) at 100000 nM using YPTI as substrate protein and [3H]geranylgeranyl pyrophosphate incubated for 20 mins by scintillation counting assay; assay type: protein-complex assay
[28] = test system: PANC-1; experiment: Antitumor activity against human PANC1 cells xenografted in SCID mouse assessed as inhibition of tumor growth at 1.16 mg/kg, ip dosed once time per week and measured every 2 weeks; assay type: functional, organism-based
[29] = Toxicity in SCID mouse xenografted with human PANC1 cells assessed as effect on PLT level at 1.16 mg/kg, ip dosed 3 times per week and measured every 2 weeks up to day 14 to day 47; assay type: organism-based; conditions: in vivo, 336 h
[30] = Toxicity in SCID mouse xenografted with human PANC1 cells assessed as effect on cholesterol level at 1.16 mg/kg, ip dosed 3 times per week and measured every 2 weeks up to day 14 to day 47; assay type: organism-based; conditions: in vivo, 336 h

In the case of `Cc1ccccc1S(=O)(=O)N1[C@@H](c2ccc(Cl)cc2)C(C(=O)N[C@@H](Cc2ccccc2)C(N)=O)=C[C@H]1C(C)(C)C`, the Activity [1] is reported as “Non-Toxic”, the TGI [2] is reported as “Active” and the GI50 [3] is reported as 4.89 to 6.1 µM. For the same compound, the Activity [4] was “Dose-dependent effect”, the TGI [5] was “Active” and the Activity [6] was “Non-Toxic”. The Activity [7] was “Non-Toxic”, the Activity [8] was “Non-Toxic” and the inhibition [9] was “Active”. For the same compound, the CL/F [10] was 0.0173 mL/min, the inhibition [11] was “inactive” and the Activity [12] was “Non-Toxic”. The Activity [13] was “Non-Toxic”, the Activity [14] was “Non-Toxic” and the inhibition [15] was “inactive”. For the same compound, the Activity [16] was “Non-Toxic”, the Activity [17] was “Dose-dependent effect” and the Activity [18] was “Non-Toxic”. For the same compound, the inhibition [19] was “Dose-dependent effect”, the Activity [20] was “Non-Toxic” and the inhibition [21] was “inactive”. The IC50 [22] was 1 to 7.7 µM, the Activity [23] was “Non-Toxic” and the Activity [24] was “Dose-dependent effect”. The Activity [25] was “Non-Toxic”, the Activity [26] was “Non-Toxic” and the inhibition [27] was “inactive”. The TGI [28] was “Active”, the Activity [29] was “Non-Toxic” and the Activity [30] was “Non-Toxic”.
